Laboratory results as given in patent publication EP0489933A1, “BILE ALCOHOL AND DRUG CONTAINING THE SAME AS ACTIVE INGREDIENT” (TSUMURA CO., LTD., priority 1990, dated 1992).

What was measured:
red blood cells = test: Inhibition of thermal hemolysis of red blood cells; type: cell-based, donryu rats; details: 53°C for 20 minutes; for inhibition at 10 µM / inhibition at 50 µM / inhibition at 100 µM / inhibition at 200 µM / inhibition at 500 µM: Rattus norvegicus, Erythrocyte, 20 min, read-out: Hemolysis Inhibition Ratio (%) against Control
Experimental: Blood was collected from donryu rats of 150 to 200 g in body weight and centrifuged at 1,500 rpm for 5 minutes to obtain red blood cells. The red blood cells thus collected were diluted with 0.15 M phosphate buffer (pH 7.4) to prepare a 5% red blood cell suspension. A 3.8 ml portion of the thus prepared suspension was mixed with 0.2 ml solution of each compound of the present invention which has been adjusted to each level of the concentrations as shown in the following table, and the resulting mixture was shaken thoroughly and incubated at 53°C for 20 minutes. Thereafter, the thus incubated mixture was cooled rapidly with tap water and centrifuged at 3,000 rpm for 15 minutes, and absorbance at 540 nm of the resulting supernatant fluid was measured using a spectrophotometer (Hitachi: Type 200-20). Inhibition rate (%) of red blood cell hemolysis at each concentration of the compound was calculated based on the absorbance, with the results shown in Table 8.

erythrocytes = test: Erythrocyte deformability (filtration through 5 µm filter) after oral administration; type: in vivo, male rats of Wistar line; details: 30 mg/kg, p.o.; blood collected 90 minutes after administration; number of filtered erythrocytes
Experimental: In this experiment, 9-week-old male rats of Wistar line (5 to 6 individuals per one group) were used after rearing them for 1 week with normal feed. After 24 hours of fasting, each test drug was administered orally and, 90 minutes thereafter, blood sample was collected from lower abdominal vena cava of each rat under anesthesia with Nembutal® (1 ml/kg, i.p.). Blood samples obtained in this way were checked for their blood clotting time and erythrocyte deformability.
Measuring procedures are as follows.
Erythrocyte deformability ... The collected blood is extruded from a syringe with a constant flow of He in a holder equipped with a filter (5 µm). Weight of blood and the number of erythrocytes filtered during a fixed time are measured and the deformability is expressed based on the number of filtered erythrocytes. The results of these measurements are shown respectively in Tables 11 and 12.

male mice of ddY line = test: Survival time under hypoxia (aeration with 96% nitrogen and 4% oxygen); type: in vivo; details: 50 mg/kg, i.p., 60 minutes before aeration with 96% nitrogen and 4% oxygen; time to respiratory arrest
Experimental: In this experiment, 5 to 6-week-old male mice of ddY line (10 individuals per one group) were used after fasting treatment for 24 hours.
Each compound obtained in the present invention was administered intraperitoneally. After 60 minutes of the administration, each mouse was transferred separately into a transparent vessel (capacity, 1,000 ml) equipped with an air exit, and the vessel was aerated with a mixed gas consisting of 96% nitrogen and 4% oxygen at an aeration rate of 5 ℓ/min.
All tested mice died within 180 seconds after the commencement of the gas mixture aeration. Terminal respiration was observed several times prior to the respiratory arrest. Survival time of the control group was roughly in the range of from 96 to 111 seconds.

male rats of SD line = test: High cholesterol feed: blood viscosity, serum total cholesterol, triglyceride, GOT; type: in vivo; details: 100 mg/kg/day, p.o., 4 days
Experimental: In this experiment, 5-week-old male rats of SD line (5 individuals per one group) were used after rearing them for 1 week using normal feed, and each compound of the present invention (100 mg/kg) was administered orally once a day for 4 days. Simultaneously with the commencement of the administration, the normal feed was replaced by a high cholesterol feed. After completion of the administration, they were subjected to fasting treatment for 24 hours. Thereafter, each rat was subjected to ventrotomy under anesthesia with Nembutal® (Dainabot Co., Ltd.; 50 mg/kg, i.p.) to collect blood from abdominal aorta, and the collected blood sample was checked for its blood viscosity using a viscometer (Biolyzer, Tokyo Keiki Co., Ltd.). At the same time, total cholesterol (Wako Pure Chemical Industries, Ltd.; Cholesterol E-test wako), triglyceride (Wako Pure Chemical Industries, Ltd.; Triglyceride G-test wako) and GOT (Wako Pure Chemical Industries, Ltd.; GOT-UV test-wako) in serum samples were measured.

[1] = system: platelet rich plasma (PRP); test: Platelet aggregation in platelet rich plasma after oral administration; type: in vivo, male rat; details: 30 mg/kg, p.o., blood 90 minutes after administration
Experimental: Each drug to be tested was orally administered to each male rat which has been subjected to fasting treatment for 18 to 24 hours. After 90 minutes of the administration, median incision ventrotomy was carried out under ether anesthesia to collect 9 volumes of blood using a syringe filled with 1 volume of 3.8% sodium citrate solution (3.8% sodium citrate solution:blood = 1:9). After thorough mixing, the thus prepared mixture was centrifuged at 800 rpm for 10 minutes at room temperature to collect the resulting supernatant fluid as platelet rich plasma (PRP). The residual portion was centrifuged at 3,000 rpm for 15 minutes at room temperature to collect the resulting supernatant fluid as platelet poor plasma (PPP). The PRP was diluted with the PPP to adjust the number of platelets to 3×10⁵ ± 2×10⁴ cells/µl. A 450 µl portion of the thus diluted PRP was incubated at 37°C for 3 minutes and then mixed with 50 µl of 1×10⁻⁵ M of ADP or 1×10⁻⁵ g/ml of collagen. Thereafter, platelet aggregation test of the mixture was carried out using an aggregometer by measuring transmittance at 940 nm.

male SD rats = test: Thrombus formation in abdominal vena cava; type: in vivo; details: 30 mg/kg, p.o.; dry weight of thrombus
Experimental: Each of male SD rats of 130 to 210 g in body weight was anesthetized with Nembutal® (50 mg/kg, i.p.) and subjected to median incision ventrotomy to release about a 2 cm portion of abdominal vena cava below the renal vein. Blood flow of the thus released vena cava was temporarily stopped for 5 minutes with 8 hemostatic clips. After recirculating blood for 5 minutes by removing the hemostatic clips, […] was ligated at a position just below the renal vein and the median-incised part was sutured. Two hours after the ligature, the thus treated rat was again subjected to ventrotomy to excise abdominal vena cava. The thus excised blood vessel was cut open on a filter paper which had been moistened with physiological saline, in order to take out thrombus. The thrombus thus obtained was washed with physiological saline to remove adhered blood and the like substances and then dried at 80°C for 12 hours or longer to measure its dry weight. In this instance, each drug to be tested was orally administered 90 minutes before the clipping to examine its effect by single administration on the formation of thrombus. Separately from this, each test drug was administered to 6-week-old male SD rat continuously for 7 days, thrombus was prepared in the eighth day in the same manner as described above and dry weight of the thrombus was measured, in order to examine effect of the continuous 7 day administration on the thrombus formation.

Row | SMILES | Hemolysis Inhibition Ratio (%) against Control (red blood cells; 0.01 mM) [%] | Hemolysis Inhibition Ratio (%) against Control (red blood cells; 0.05 mM) [%] | Hemolysis Inhibition Ratio (%) against Control (red blood cells; 0.1 mM) [%] | Hemolysis Inhibition Ratio (%) against Control (red blood cells; 0.2 mM) [%] | Hemolysis Inhibition Ratio (%) against Control (red blood cells; 0.5 mM) [%] | Erythrocyte Deformation: Erythrocyte counts ±S.E. (erythrocytes) [× 10⁷] | Survival Time ±S.E. (male mice of ddY line) [s] | GOT ±S.E. (male rats of SD line) [IU/ℓ] | Total Cholesterol ±S.E. (male rats of SD line) [mg/dL] | Triglyceride ±S.E. (male rats of SD line) [mg/dL] | Platelet Aggregation Ratio ±S.E. ([1]; ADP (1×10⁻⁵ M)) [%] | Platelet Aggregation Ratio ±S.E. ([1]; Collagen (1×10⁻⁵ g/ml)) [%] | Antithrombotic Effect: Thrombus weight ±S.E. (male SD rats) [mg] | inhibition at 10 µM (red blood cells; 0.01 mM) [%] | inhibition at 50 µM (red blood cells; 0.05 mM) [%] | inhibition at 100 µM (red blood cells; 0.1 mM) [%] | inhibition at 200 µM (red blood cells; 0.2 mM) [%] | inhibition at 500 µM (red blood cells; 0.5 mM) [%]
1 | CC(CCC1OCC1CO)C1CCC2C3C(O)CC4CC(O)CCC4(C)C3CC(O)C12C [Example 3, (24R)-(25S)-(+)-24,26-epoxy-5β-cholestane-3α,7α,12α,27-tetrol] | 33 | 30 | 24 | 51 | 70 | 3.55 ± 0.66 | 113.2 ± 5.28 | 140 ± 10 | 445 ± 65 | 90 ± 39 | 42.5 ± 3.81 | 42.5 ± 1.85 | 13.5 ± 1.22 |  |  |  |  | 
2 | C[C@H](CC[C@H]1OC[C@H]1CO)[C@H]1CC[C@H]2[C@@H]3[C@H](O)C[C@@H]4C[C@H](O)CC[C@]4(C)[C@H]3C[C@H](O)[C@]12C [Example 4, (24R)-(25R)-(+)-24,26-epoxy-5β-cholestane-3α,7α,12α,27-tetrol] |  |  |  |  |  | 3.97 ± 0.39 | 115.5 ± 3.88 | 138 ± 9 | 428 ± 49 | 92 ± 45 | 46.1 ± 2.65 | 47.7 ± 3.88 | 11.2 ± 3.81 | 27 | 21 | 31 | 44 | 48
3 | C[C@H](CC[C@@H](O)C1COC1)[C@H]1CC[C@H]2[C@@H]3[C@H](O)C[C@@H]4C[C@H](O)CC[C@]4(C)[C@H]3C[C@H](O)[C@]12C [Example 5, (24R)-(+)-26,27-epoxy-5β-cholestane-3α,7α,12α,24-tetrol] |  |  |  |  |  | 4.10 ± 0.55 | 110.0 ± 5.10 | 141 ± 13 | 405 ± 99 | 91 ± 33 | 48.5 ± 3.31 | 48.1 ± 2.65 | 11.2 ± 3.12 | 23 | 19 | 30 | 41 | 61
4 | C[C@H](CCCC(CO)CO)[C@H]1CC[C@H]2[C@@H]3[C@H](O)C[C@@H]4C[C@H](O)CC[C@]4(C)[C@H]3C[C@H](O)[C@]12C [Example 6, 3α,7α,12α,26,27-pentahydroxy-5β-cholestane] |  |  |  |  |  | 3.81 ± 0.44 | 127.5 ± 9.26 | 143 ± 8 | 391 ± 70 | 99 ± 41 | 50.1 ± 2.33 | 42.3 ± 3.83 | 13.5 ± 2.11 | 33 | 25 | 20 | 41 | 62
5 | C[C@H](CCCC(CO)CO)[C@H]1CC[C@H]2[C@@H]3[C@H](O)C[C@H]4C[C@H](O)CC[C@]4(C)[C@H]3C[C@H](O)[C@]12C [Example 7, 3α,7α,12α,26,27-pentahydroxy-5α-cholestane] |  |  |  |  |  | 4.02 ± 0.37 | 121.5 ± 6.00 | 138 ± 18 | 385 ± 58 | 92 ± 31 | 44.3 ± 2.43 | 42.1 ± 3.15 | 12.2 ± 1.33 | 32 | 21 | 31 | 61 | 70
6 | C[C@H](CC[C@H](O)C(CO)CO)[C@H]1CC[C@H]2[C@@H]3[C@H](O)C[C@@H]4C[C@H](O)CC[C@]4(C)[C@H]3C[C@H](O)[C@]12C [Example 8, (24S)-3α,7α,12α,24,26,27-hexahydroxy-5β-cholestane] |  |  |  |  |  | 4.53 ± 0.82 | 144.8 ± 10.27 | 140 ± 13 | 410 ± 40 | 87 ± 15 | 41.8 ± 1.81 | 46.6 ± 3.81 | 10.5 ± 1.43 | 27 | 20 | 37 | 50 | 60
7 | C[C@H](CC[C@H](O)[C@@H](C)CO)[C@H]1CC[C@H]2[C@@H]3[C@H](O)C[C@@H]4C[C@H](O)CC[C@]4(C)[C@H]3C[C@H](O)[C@]12C [Example 9, (24S)-(25S)-3α,7α,12α,24,26-pentahydroxy-5β-cholestane] |  |  |  |  |  | 4.11 ± 0.44 | 126.5 ± 5.21 | 138 ± 8 | 441 ± 51 | 89 ± 41 | 41.1 ± 1.21 | 49.1 ± 1.11 | 12.5 ± 2.44 | 28 | 23 | 38 | 51 | 65
